In the supplement of paper PMC10307832:

Columns and labels:
Assay in all cases: relative viability (nuclei count vs DMSO), 5 days (fraction); higher = more cells survive
RO-3306 + Pemetrexed = compound: C1=CC2=C(C=CC(=C2)C=C3C(=O)NC(=NCC4=CC=CS4)S3)N=C1 [RO-3306] + Nc1nc2[nH]cc(CCc3ccc(C(=O)N[C@@H](CCC(=O)O)C(=O)O)cc3)c2c(=O)[nH]1 [Pemetrexed] (partner 0.2 µM)
Outline: (§1)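 The day after seeding in 1536-well plates, lung cancer cell lines were treated by pin tool with a single drug, or with a fixed anchor-drug dose together with five library-drug doses (not always all listed) in √10 steps. After 5 days, a combined fix-and-stain solution (final 0.05% Triton X-100, 1% formaldehyde, 1 ug/ml Hoechst) was added. Nuclei counted on 4× images gave relative viability as treated counts over vehicle counts, reported as the median of duplicate plates.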

[1] = compound: O=S(=O)(c1ccccc1)N(CC(F)(F)F)c1ccc(C(O)(C(F)(F)F)C(F)(F)F)cc1 + COc1cc2c(Oc3ccc(NC(=O)C4(C(=O)Nc5ccc(F)cc5)CC4)cc3F)ccnc2cc1OCCCN1CCOCC1 [Foretinib] (partner 0.25 µM)
Outline: as §1

RO-3306 + Decitabine = compound: C1=CC2=C(C=CC(=C2)C=C3C(=O)NC(=NCC4=CC=CS4)S3)N=C1 [RO-3306] + Nc1ncn([C@H]2C[C@H](O)[C@@H](CO)O2)c(=O)n1 [Decitabine] (partner 2 µM)
Outline: as §1

RO-3306 + Linsitinib = compound: C1=CC2=C(C=CC(=C2)C=C3C(=O)NC(=NCC4=CC=CS4)S3)N=C1 [RO-3306] + C[C@]1(O)C[C@@H](c2nc(-c3ccc4ccc(-c5ccccc5)nc4c3)c3c(N)nccn32)C1 [Linsitinib] (partner 1 µM)
Outline: as §1

Cell Line: UMC-11
- relative viability (RO-3306 + Pemetrexed; first compound 0.01 µM): 0.906
- relative viability (RO-3306 + Pemetrexed; first compound 0.03162 µM): 0.746
- relative viability (RO-3306 + Pemetrexed; first compound 0.1 µM): 0.816
- relative viability (RO-3306 + Pemetrexed; first compound 0.3162 µM): 0.816
- relative viability (RO-3306 + Pemetrexed; first compound 1 µM): 0.791
- relative viability ([1]; first compound 0.8 µM): 1.16
- relative viability ([1]; first compound 2.53 µM): 1.12
- relative viability ([1]; first compound 8 µM): 1.08
- relative viability (RO-3306 + Decitabine; first compound 0.01 µM): 0.569
- relative viability (RO-3306 + Decitabine; first compound 0.03162 µM): 0.58
- relative viability (RO-3306 + Decitabine; first compound 0.1 µM): 0.613
- relative viability (RO-3306 + Decitabine; first compound 0.3162 µM): 0.607
- relative viability (RO-3306 + Decitabine; first compound 1 µM): 0.583
- relative viability (RO-3306 + Linsitinib; first compound 0.01 µM): 0.998
- relative viability (RO-3306 + Linsitinib; first compound 0.03162 µM): 0.783
- relative viability (RO-3306 + Linsitinib; first compound 0.1 µM): 1.08
- relative viability (RO-3306 + Linsitinib; first compound 0.3162 µM): 1.08
- relative viability (RO-3306 + Linsitinib; first compound 1 µM): 1.03
